Experimental data taken from patent US5128344A, “Sampangine and derivatives useful as an antifungal agent” (University of Mississippi, priority 1990, dated 1992).
In brackets after ≈: the same amount, converted by molar mass. Entries after “also recorded” stand apart in the source; their conditions may differ.

Experiments:
[1] = tested on: Candida albicans; assay: MIC, twofold serial broth dilution assay, Candida albicans; assay type: cell-based, Candida albicans NIH B311; conditions: 24 h, 37°
Method: (§1) Candida albicans NIH B311 used to induce experimental disseminated candidiasis was used for the initial qualitative evaluation of anticandidal activity. The organism was grown in Sabouraud-dextrose broth (SDB) for 24 hours at 37°, at which time the cells were harvested by centrifugation at (4°, 2000 rpm, 3 min.). After centrifugation, the cells were washed and suspended in sterile 0.9% saline to give a final concentration of 10^6 colony forming units (CFU) per ml (adjusted using a hemocytometer). Inocula of Cryptococcus neoformans and Aspergillus fumigatus were prepared by suspension of the surface growth of stock agar slants in sterile H2 O. Culture plates (15×100 mm) for the qualitative assay were prepared from 25 ml of Sabouraud-dextrose agar for Candida albicans, and Mycophil™ agar for Cryptococcus neoformans and Aspergillus fumigatus. Using sterile cotton swabs, the plates were streaked with the suspension of appropriate test organism. Cylindrical plugs were removed from the agar plates by means of sterile cork borer to produce wells with a diameter of approximately 11 mm. To the well was added 100 μl of solution or suspension of an extract, fraction, or pure compound. Crude extracts and fractions were tested at a concentration of 20 mg/ml, whereas pure compounds were tested at 1 mg/ml. When solvents other than water, ethanol, methanol, dimethylsulfoxide (DMSO), dimethylformamide (DMF), or acetone were required to dissolve extracts or compounds, solvent blanks were included. Antifungal activity was recorded as the width (in mm) of the zone of inhibition, measured from the edge of the agar well to the edge of the zone, following incubation of the plates for 24 hours (37° for Candida albicans, 30° for Aspergillus fumigatus and 26° for Cryptococcus neoformans). The antifungal agents amphotericin B and ketoconazole were included as positive controls in each assay.
(§2) The method used to determine the minimum inhibitory concentration (MIC) was the twofold serial broth dilution assay in one or more of the following broth media: yeast nitrogen broth, Mycophil™ broth and Saboraud-dextrose broth (SDB). The inoculum for the MIC determination was prepared as described above for the qualitative evaluation. Using a calibrated sterile wire loop, each tube was inoculated with 10 μl of the suspension. The MIC value was taken as the lowest concentration of compound that inhibited the growth of the test organisms after an appropriate incubation period (37° for 24 hours for Candida albicans; 30° for 48 hours for Aspergillus fumigatus; 26° for 48 hours for Cryptococcus neoformans). The antifungal agent amphotericin B was included as positive control in each assay.

[2] = tested on: Cryptococcus neoformans; assay: MIC, twofold serial broth dilution assay, Cryptococcus neoformans; assay type: cell-based, Cryptococcus neoformans ATCC 32264; conditions: 48 h, Cn, 26°
Method: (§3) The generic name for the compound is 3-Methoxysampangine. The antifungal activity of the compound was determined by in vitro evaluation against Candida albicans NIH B311, Cryptococcus neoformans ATCC 32264, and Aspergillus fumigatus ATCC 26934 using the known agar-well diffusion assay techniques with the following modifications.
as §1, §2

[3] = tested on: Aspergillus fumigatus; assay: MIC, twofold serial broth dilution assay, Aspergillus fumigatus; assay type: cell-based, Aspergillus fumigatus ATCC 26934; conditions: Af, 30°, 48 hours
Method: as §3, §1, §2

[4] = tested on: Candida albicans, Cryptococcus neoformans and Aspergillus fumigatus; assay: in vitro antifungal activity, overall statement in words; assay type: cell-based; conditions: against both yeasts and the filamentous fungus
Method: as §3, §1
The method used to determine the minimum inhibitory concentration (MIC) was the twofold serial broth dilution assay in one or more of the following broth media: yeast nitrogen broth, Mycophil™ broth and Saboraud-dextrose broth (SDB). The inoculum for the MIC determination was prepared as described above for the qualitative evaluation. Using a calibrated sterile wire loop, each tube was inoculated with 10 μl of the suspension. […]

[5] = tested on: Candida albicans; conditions: J. Natural Products 1987, Hufford et al.; cited from earlier work
[6] = Candida albicans, Ca B311, SDB (Sabouraud dextrose broth)
[7] = Cryptococcus neoformans, SDB (Sabouraud dextrose broth)
[8] = Ca B311, YNB (yeast nitrogen base broth)
[9] = Candida albicans, Ca B311, MYCO (Mycophil broth)
[10] = YNB (yeast nitrogen base broth)
[11] = Cryptococcus neoformans, MYCO (Mycophil broth)

SMILES | MIC [1, 6] [µg/mL] | MIC [2, 7] [µg/mL] | MIC ([3]; SDB (Sabouraud dextrose broth)) [µg/mL] | MIC [1, 8] [µg/mL] | MIC [1, 9] [µg/mL] | MIC [2, 10] [µg/mL] | MIC [2, 11] [µg/mL] | MIC ([3]; MYCO (Mycophil broth)) [µg/mL] | MIC ([1]; Ca B311, YNB (yeast nitrogen base broth) (original)) [µg/mL] | MIC ([2]; YNB (yeast nitrogen base broth) (original)) [µg/mL] | antifungal activity (in words) [4] | anticandidal properties (in words) [5]
COc1cnc2c3c(nccc13)C(=O)c1ccccc1-2 [3-Methoxysampangine] | 3.12 (≈ 11.9 µM) | 0.2 (≈ 0.763 µM) | 3.12 (≈ 11.9 µM) | – | – | – | – | – | – | – | significant antifungal activity; also recorded: remarkable antifungal properties | –
O=C1c2ccccc2-c2nccc3c(Br)cnc1c23 [4-Bromosampangine] | 25 (≈ 80.4 µM) | 0.39 (≈ 1.25 µM) | – | 12.5 (≈ 40.2 µM) | 25 (≈ 80.4 µM) | < 0.2 | < 0.2 | 50 (≈ 161 µM) | – | – | significant antifungal activity | –
COc1cnc2c3c(nccc13)-c1ccccc1C2=O [4-Methoxysampangine] | 100 (≈ 381 µM) | 3.12 (≈ 11.9 µM) | – | 3.12 (≈ 11.9 µM) | 100 (≈ 381 µM) | 12.5 (≈ 47.7 µM) | 1.56 (≈ 5.95 µM) | – | – | – | significant antifungal activity | –
C[C@@H]1[C@H](O)[C@@H](C)/C=C/C=C/C=C/C=C/C=C/C=C/C=C/[C@H](O[C@@H]2O[C@H](C)[C@@H](O)[C@H](N)[C@@H]2O)C[C@@H]2O[C@](O)(C[C@@H](O)C[C@@H](O)[C@H](O)CC[C@@H](O)C[C@@H](O)CC(=O)O[C@H]1C)C[C@H](O)[C@H]2C(=O)O [Amphotericin B, reference compound] | – | – | – | – | 0.2 (≈ 0.216 µM) | – | 0.2 (≈ 0.216 µM) | 3.12 (≈ 3.38 µM) | – | – | – | –
c1ccc2c(c1)-c1nccc3ccnc-2c13 [eupolauridine] | – | – | – | – | – | – | – | – | – | – | – | possibly remarkable anticandidal properties

The next lines start with results.

MIC [1, 6] [µg/mL] | MIC [2, 7] [µg/mL] | MIC ([3]; SDB (Sabouraud dextrose broth)) [µg/mL] | MIC [1, 8] [µg/mL] | MIC [1, 9] [µg/mL] | MIC [2, 10] [µg/mL] | MIC [2, 11] [µg/mL] | MIC ([3]; MYCO (Mycophil broth)) [µg/mL] | MIC ([1]; Ca B311, YNB (yeast nitrogen base broth) (original)) [µg/mL] | MIC ([2]; YNB (yeast nitrogen base broth) (original)) [µg/mL] | SMILES | antifungal activity (in words) [4] | anticandidal properties (in words) [5]
1.56 (≈ 5.53 µM) | < 0.2 | – | 3.12 (≈ 11.1 µM) | 50 (≈ 177 µM) | 1.56 (≈ 5.53 µM) | < 0.2 | 0.39 (≈ 1.38 µM) | – | – | O=C1c2ccccc2-c2nccc3c2c1nc1ccccc13 [Benzo[4,5]sampangine] | – | –
6.25 (≈ 26.9 µM) | < 0.2 | – | 0.78 (≈ 3.36 µM) | 12.5 (≈ 53.8 µM) | < 0.2 | 0.78 (≈ 3.36 µM) | 1.56 (≈ 6.72 µM) | 1.56 (≈ 6.72 µM) | < 0.005 | O=C1c2ccccc2-c2nccc3ccnc1c23 [Sampangine] | significant antifungal activity | –
